Reference: patent publication US20260272899A1 (Bayer Aktiengesellschaft, priority 2024, published 2026)

CCOc1ncc(C)c2c1[C@H](c1ccc(C#N)cc1OC)C(C(N)=O)=C(C)N2 [finerenone, (4S)-4-(4-cyano-2-methoxyphenyl)-5-ethoxy-2,8-dimethyl-1,4-dihydro-1,6-naphthyridine-3-carboxamide]
Sudden death, number of subjects (AE of death or leading to death by preferred term, finerenone n = 2,993): 20 | All-cause death, Rate (per 100 py) (No SGLT2i use at baseline, column headed Finerenone n = 2,610): 7.0 per 100 py | Total worsening heart failure events and death from cardiovascular causes: Rate per 100 patient-yr (finerenone N = 3,003): 14.9 per 100 patient-yr
